Earlier results as cited in US20170128486A1, “CONSUMABLE COMPOSITIONS AND USES THEREOF FOR ALLEVIATING UNDESIRABLE PHYSIOLOGICAL EFFECTS SYSTEMS” (ImmunoL0G1C R&D Inc., priority 2015, published 2017).
Converted amounts (≈) assume the structure as drawn.

Structure (SMILES)	solubility (in water) [µg/mL]	solubility in water
N[C@@H](Cc1c[nH]c2ccc(O)cc12)C(=O)O [5-hydroxytryptophan]	10000 (≈ 45.4 mM)	–
N[C@@H](Cc1c[nH]c2ccccc12)C(=O)O [L-tryptophan]	–	poorly soluble in water
